pIC50: −log10 of the molar value.

Usually % Inhibition stands for the relative decrease from the control value, in per cent. A higher % Inhibition goes with a strong effect. For orientation: pIC50 means the negative decadic logarithm of the IC50, by convention in mol/L. A higher pIC50 goes with a small IC50.

The subject of one test is purified human Hsp90. Nature of the test: Binding Assay: fluorescence polarization with BODIPY-labeled geldanamycin. The note with it: 5 μM compound, BODIPY-GM 10 nM, Hsp90 30 nM. The gist of the method:
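Compounds in 2% DMSO final compete with 10 nM BODIPY-GM for 30 nM purified human Hsp90, incubated overnight at room temperature in pH 7.3 HEPES buffer containing Na2MoO4 and DTT. Polarization (mP, ex/em 485/530) normalized to DMSO gives percent inhibition; autofluorescence-confounded data excluded.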
A general note: Fluorescence polarisation rises when a labelled molecule tumbles more slowly, as on binding a larger partner.
Regarding `COc1ccc(F)cc1Sc1nc2c(N)ncn(CCc3ccccc3Cl)c-2n1` [Example 317, 3-[2-(2-Chlorophenyl)ethyl]-8-[(5-fluoro-2-methoxyphenyl)thio]-3H-purin-6-amine], the “% Inhibition at 5 μM Compound Concentration” value (“% Inhibition” for short) is recorded as 0.0%.

Consider `Nc1ncn(CCC2CCCN(S(=O)(=O)C(F)(F)F)C2)c2nc(Sc3cc4c(cc3Br)OCO4)nc1-2` (centres unmarked) [Example 403, 8-[(6-Bromo-1,3-benzodioxol-5-yl)thio]-3-(2-{1-[(trifluoromethyl)sulfonyl]piperidin-3-yl}ethyl)-3H-purin-6-amine], for which the “% Inhibition” value turned out to be 14%.

Take `COc1ccc(OC)c(Sc2nc3c(N)ncn(CCc4ccsc4)c-3n2)c1` [Example 198, 8-(2,5-dimethoxy-phenylsulfanyl)-3-(2-thiophen-3-yl-ethyl)-3H-purin-6-ylamine]: the “% Inhibition” value is 18%.

Take `COc1ccc(OC)c(Sc2nc3c(N)ncn(CCc4cc(C)ccc4C)c-3n2)c1` [Example 116, 8-(2,5-dimethoxy-phenylsulfanyl)-3-[2-(2,5-dimethyl-phenyl)-ethyl]-3H-purin-6-ylamine]: the “% Inhibition” value was found to be 0%.

Take `Nc1ncn(CCc2ccsc2)c2nc(Sc3cc4c(cc3Br)OCO4)nc1-2` [Example 202, 8-(6-bromo-benzo[1,3]dioxol-5-ylsulfanyl)-3-(2-thiophen-3-yl-ethyl)-3H-purin-6-ylamine]: the “% Inhibition” value was 9%.

Take `CC1(C)CC(CCn2cnc(N)c3nc(Sc4cc5c(cc4Br)OCO5)nc2-3)CC(C)(C)N1` [Example 351, 8-[(6-Bromo-1,3-benzodioxol-5-yl)thio]-3-[2-(2,2,6,6-tetramethylpiperidin-4-yl)ethyl]-3H-purin-6-amine]: the “% Inhibition” value is 8%.

Still in this test, the particulars now being: BODIPY-GM 10 nM, Hsp90 30 nM.
As to `O=c1[nH]cnc2c1nc(Sc1ccc3c(c1)OCO3)n2CCc1ccccc1` [Example 224, 8-(Benzo[1,3]dioxol-5-ylsulfanyl)-9-phenethyl-1,9-dihydro-purin-6-one], the pIC50 is less than 5.30.

For the compound `COc1ccc(OC)c(Sc2nc3c(N)ncnc3n2CCC2CCCNC2)c1` (centres unmarked) [Example 470, 8-[(2,5-Dimethoxyphenyl)thio]-9-(2-piperidin-3-ylethyl)-9 H-purin-6-amine], the pIC50 is 6.55.

`CC(C)(C)OC(=O)N1CC[C@H]1C(=O)N1CCC(CCn2c(Sc3cc4c(cc3Br)OCO4)nc3c(N)ncnc32)CC1` [Example 728, tert-Butyl(2S)-2-{[4-(2-{6-amino-8-[(6-bromo-1,3-benzodioxol-5-yl)thio]-9H-purin-9-yl}ethyl)piperidin-1-yl]carbonyl}azetidine-1-carboxylate] had a pIC50 of 6.70. The pIC50 values of the last two compounds are within 0.2 log units of each other.

`COc1ccc(OC)c(Sc2nc3c(N)ncnc3n2CCN2CCN(C3CCCC3)CC2)c1` [Example 494, 9-[2-(4-Cyclopentylpiperazin-1-yl)ethyl]-8-[(2,5-dimethoxyphenyl)thio]-9 H-purin-6-amine] gave a negative logarithm of the IC50 (pIC50) of 5.26.

Compound `CC(C)(C)OC(=O)N1CCCCC1CCCn1c(Sc2cc3c(cc2Br)OCO3)nc2c(N)ncnc21` (centres unmarked) [Example 638, tert-Butyl 2-(3-{6-amino-8-[(6-bromo-1,3-benzodioxol-5-yl)thio]-9 H-purin-9-yl}propyl)piperidine-1-carboxylate] gave a negative logarithm of the IC50 (pIC50) of less than 4.60.

`Nc1ncnc2c1nc(Sc1cc3c(cc1Br)OCO3)n2CCc1c(Cl)cccc1Cl` [Example 128, 8-(6-Bromo-benzo[1,3]dioxol-5-ylsulfanyl)-9-[2-(2,6-dichloro-phenyl)-ethyl]-9H-purin-6-ylamine] gave a pIC50 of 7.18.

The compound `Cc1ccc(C)c(CCn2c(Sc3cc4c(cc3Br)OCO4)nc3c(N)ncnc32)c1` [Example 124, 8-(6-Bromo-benzo[1,3]dioxol-5-ylsulfanyl)-9-[2-(2,5-dimethyl-phenyl)-ethyl]-9H-purin-6-ylamine] gave a pIC50 of 6.66.

In turn, `CC(C)(C)OC(=O)NC(CCn1c(Sc2cc3c(cc2Br)OCO3)nc2c(N)ncnc21)C1CCCCC1` (centres unmarked) [Example 670, tert-Butyl(3-{6-amino-8-[(6-bromo-1,3-benzodioxol-5-yl)thio]-9H-purin-9-yl}-1-cyclohexylpropyl)carbamate] gave a pIC50 of 5.80.
